Results published in US20160200789A1, “IL4 CONJUGATED TO ANTIBODIES AGAINST EXTRACELLULAR MATRIX COMPONENTS” (PHILOGEN S.P.A., priority 2013, published 2016).
Changes are numbered by the printed parent chain. In names and notes the source's numbering stands.

Legend:
Fibrosarcoma Wehi-164 = assay: Therapy of Wehi-164 fibrosarcoma-bearing mice; format: in vivo, mouse; conditions: 4 cycles i.v. every 48 h, equimolar doses
Protocol: Fibrosarcoma Wehi-164 exponentially growing cells were harvested, repeatedly washed and re-suspended in serum-free medium prior to injection. The tumor cells were injected subcutaneously (5×10^6) in the right flank of Balb/c mice. Tumor weights (mg=mm^3) were calculated as follows: (length [mm]×width^2 [mm^2])/2.
Treatment started when tumors reached approximately 100 mg. Mice received 4 cycles of therapy, every 48 h starting from day 5 after tumor cell injection. L19-IL4 (SEQ ID NO:64) was administered i.v. at the dose of 130 μg/mouse; equimolar amounts of KSF-IL4 (130 μg/mouse) (SEQ ID NO:44), KSF-IL10 (150 μg/mouse) (SEQ ID NO:65) and L19-IL10 (150 μg/mouse) (SEQ ID NO:66) were administered. Control mice received sterile vehicle solution (PBS). The results are shown in FIG. 16 (mean tumour weight over time). The number of mice in each treatment group was 3-4.

F9 teratocarcinoma [1] = assay: Quantitative biodistribution in F9 tumour-bearing mice; format: in vivo, mouse; conditions: 15 μg radioiodinated protein i.v., 24 hours
Protocol: The in vivo targeting performance was assessed by quantitative biodistribution where 15 μg of radioiodinated fusion protein was injected i.v. into the lateral tail vein of immunocompetent 11-12 week old female Sv129Ev mice (obtained from Charles River [Germany]), bearing sub-cutaneously grafted F9 tumours (for labelling protocol, see (Pasche et al. 2011)). Mice were sacrificed 24 hours after injection, organs were excised, weighed and radioactivity was measured using a Packard Cobra γ counter.

CTLL2 cells = assay: CTLL2 cell proliferation bioactivity assay; format: cell-based; conditions: 24 h
Protocol: The biological activity of murine IL4 was determined by its ability to stimulate the proliferation of CTLL2 cells. […] After incubation at 37° C. for 24 h, cell proliferation was determined with Cell Titer Aqueous One Solution (Promega).

[2] = molecular target: T1, EDA domain of fibronectin (Homo sapiens, UniProt P02751); assay: Surface plasmon analysis (BIAcore) on EDA antigen-coated sensor chip; format: binding
T1 construct: surface plasmon analysis (BIAcore) on an EDA antigen-coated sensor chip
Excerpt: The fusion protein was expressed and purified to homogeneity as described for F8-IL4 above.

A20 lymphoma = assay: Therapy studies in A20 tumour-bearing mice; conditions: A20, F8-IL4 vs KSF-IL4 study
Excerpt: (§1) Data represent mean tumour volumes (±SEM), n=5 mice per group. […] Data represent mean tumour volumes (±SEM), n=5 mice per group.
Differences in tumor volume, % ID/g and Tumor-to-blood ratio between therapeutic groups were compared using Graphpad Prism's repeated measures (mixed model) ANOVA analysis.
For this, as well as the other experiments described below, F9 teratocarcinoma (CRL-1720; ATCC, Molsheim Cedex, France), CT26 colon carcinoma (CRL-2638; ATCC, Molsheim Cedex, France) and A20 lymphoma (TIB-208; ATCC, Molsheim Cedex, France) were grown according to the supplier's protocol and tumour cells implanted subcutaneously in the flank using 25×10^6 cells (F9), 2×10^6 cells (CT26) or 8×10^6 cells (A20). F9 teratocarcinoma cells were implanted into 129/SvEv mice (Charles River, Sulzfeld, Germany), CT26 colon carcinoma cells were implanted into Balb/c mice (Elevage Janvier, Le Genest-St-Isle, France) and A20 lymphoma cells were implanted into Balb/c mice (Elevage Janvier, Le Genest-St-Isle, France). Mice were sacrificed when tumour volumes reached a maximum of 2000 mm^3.

[3] = test system: endometriotic lesions in Balb/c mice; assay: Endometriosis model in Balb/c mice; format: in vivo, mouse; conditions: 200 μg/mouse i.v. days 1, 4, 7; day 15; vs PBS
Protocol: Endometriosis was induced in sixty eight-week old female Balb/c mice according to the protocol described by Somigliana et al. (1999).
One day after the implantation of endometrial tissue, pairs of mice (who received tissue from the same donor) were treated either with intravenous (i.v.) injections of F8-murine IL4 (200 μg/mouse; SEQ ID NO: 21) or PBS (group 1); or with i.v. injections of KSF-murine IL4 (200 μg/mouse; SEQ ID NO: 44) or PBS (group 2). The same treatment was repeated at days 4 and 7. Mice were sacrificed at day 15.

CT26 colon carcinoma = assay: Therapy studies in CT26 tumour-bearing mice
Excerpt: as §1
In the description of the below experiments, data are expressed as the mean (±SEM). Differences in tumor volume, % ID/g and Tumor-to-blood ratio between therapeutic groups were compared using Graphpad Prism's repeated measures (mixed model) ANOVA analysis.
Mice were sacrificed when tumour volumes reached a maximum of 2000 mm^3.
In order to study a second immunocompetent mouse model of cancer, the inventors focused on Balb/c mice (obtained from Elevage Janvier [France]) bearing subcutaneous CT26 tumours of colorectal origin.

[4] = test system: tumour neovascular structures in murine F9, CT26 and A20 tumours; assay: Immunofluorescence on untreated tumour sections; parameters: species or system mouse; conditions: biotinylated protein on F9, CT26 and A20 tumour sections
Excerpt: For detection streptavidin-Alexa Fluor 488 and anti-rat-Alexa Fluor 594 (Invitrogen) were used. Slides were mounted with fluorescent mounting medium (Dako) and analyzed with an Axioskop2 mot plus microscope (Zeiss).

[5] = molecular target: T2, EDA in the pancreas of diabetic mice (Mus musculus, UniProt P11276); assay: Immunofluorescence staining of pancreas of diabetic mice; conditions: antibodies in SIP format, 2 μg/ml
T2 construct: from tissue; host or cells: pancreas of streptozotocin-treated diabetic C57BL/6J mice (frozen sections)
Protocol: Type 1 diabetes is an autoimmune disease characterized by progressive destruction of pancreatic beta-cells. IL4 has been previously proposed as a potential medicament for preventing diabetes mellitus type 1 (Walz et al. 2002). Six week old C57BL/6J male mice were treated for 5 consecutive days with Streptozotocin (50 mg/kg by intraperitoneal [i.p.] injection). Blood glucose levels were recorded daily and mice were deemed diabetic if their non-fasted blood glucose levels were >300-400 mg/decilitre (dL). Pancreatic tissue was collected from the diabetic mice and snap frozen before cutting and staining. The staining procedure was performed according to the method set out in Pfaffen et al., Eur. J. Nucl. Med. Mol. Imaging (2010). Briefly, purified antibodies in SIP format (2 μg/ml), including antibody F8 (SEQ ID NO: 69), were added onto the sections and detected with a rabbit […] antibody (Dako). A further incubation with the fluorescently labelled goat anti-rabbit IgG Alexa Fluor 488 antibody (Life Technologies) was performed prior to imaging. Blood vessels and cell nuclei were detected using a rat anti-mouse CD31 antibody (BD Bioscience) followed incubation with a donkey anti-rat Alexa 594 antibody (Life Technologies), and DAPI, respectively. The filled white arrows in FIG. 19 indicate CD31^+ blood vessels. […]

F9 teratocarcinoma [6] = assay: Biodistribution of F8-hIL4 and F8-hIL4-N284Q in F9 tumour-bearing mice; format: in vivo, mouse; conditions: 10 μg radioiodinated antibody i.v., 24 hours
Protocol: 11-12 weeks old female 129/SvEv mice were obtained from Charles River (Sulzfeld, Germany). Tumor cells were implanted subcutaneously in the flank of the mice using 25×10^6 cells.
The in vivo targeting performance of F8-hIL4, and its unglycosylated variant F8-hIL4-N284Q were evaluated in quantitative biodistribution studies. The antibodies were radioiodinated using […] and Chloramine T hydrate according to the protocol of Pasche et al. 2011. 10 μg of each radioiodiated antibody were injected into the lateral tail vein of the mice. Injected mice were sacrificed 24 hours after injection. Organs were then excised and radioactivity was counted in Cobra gamma counter (Packard, Meriden, Conn.).

T2 sequence (P11276 33-2477): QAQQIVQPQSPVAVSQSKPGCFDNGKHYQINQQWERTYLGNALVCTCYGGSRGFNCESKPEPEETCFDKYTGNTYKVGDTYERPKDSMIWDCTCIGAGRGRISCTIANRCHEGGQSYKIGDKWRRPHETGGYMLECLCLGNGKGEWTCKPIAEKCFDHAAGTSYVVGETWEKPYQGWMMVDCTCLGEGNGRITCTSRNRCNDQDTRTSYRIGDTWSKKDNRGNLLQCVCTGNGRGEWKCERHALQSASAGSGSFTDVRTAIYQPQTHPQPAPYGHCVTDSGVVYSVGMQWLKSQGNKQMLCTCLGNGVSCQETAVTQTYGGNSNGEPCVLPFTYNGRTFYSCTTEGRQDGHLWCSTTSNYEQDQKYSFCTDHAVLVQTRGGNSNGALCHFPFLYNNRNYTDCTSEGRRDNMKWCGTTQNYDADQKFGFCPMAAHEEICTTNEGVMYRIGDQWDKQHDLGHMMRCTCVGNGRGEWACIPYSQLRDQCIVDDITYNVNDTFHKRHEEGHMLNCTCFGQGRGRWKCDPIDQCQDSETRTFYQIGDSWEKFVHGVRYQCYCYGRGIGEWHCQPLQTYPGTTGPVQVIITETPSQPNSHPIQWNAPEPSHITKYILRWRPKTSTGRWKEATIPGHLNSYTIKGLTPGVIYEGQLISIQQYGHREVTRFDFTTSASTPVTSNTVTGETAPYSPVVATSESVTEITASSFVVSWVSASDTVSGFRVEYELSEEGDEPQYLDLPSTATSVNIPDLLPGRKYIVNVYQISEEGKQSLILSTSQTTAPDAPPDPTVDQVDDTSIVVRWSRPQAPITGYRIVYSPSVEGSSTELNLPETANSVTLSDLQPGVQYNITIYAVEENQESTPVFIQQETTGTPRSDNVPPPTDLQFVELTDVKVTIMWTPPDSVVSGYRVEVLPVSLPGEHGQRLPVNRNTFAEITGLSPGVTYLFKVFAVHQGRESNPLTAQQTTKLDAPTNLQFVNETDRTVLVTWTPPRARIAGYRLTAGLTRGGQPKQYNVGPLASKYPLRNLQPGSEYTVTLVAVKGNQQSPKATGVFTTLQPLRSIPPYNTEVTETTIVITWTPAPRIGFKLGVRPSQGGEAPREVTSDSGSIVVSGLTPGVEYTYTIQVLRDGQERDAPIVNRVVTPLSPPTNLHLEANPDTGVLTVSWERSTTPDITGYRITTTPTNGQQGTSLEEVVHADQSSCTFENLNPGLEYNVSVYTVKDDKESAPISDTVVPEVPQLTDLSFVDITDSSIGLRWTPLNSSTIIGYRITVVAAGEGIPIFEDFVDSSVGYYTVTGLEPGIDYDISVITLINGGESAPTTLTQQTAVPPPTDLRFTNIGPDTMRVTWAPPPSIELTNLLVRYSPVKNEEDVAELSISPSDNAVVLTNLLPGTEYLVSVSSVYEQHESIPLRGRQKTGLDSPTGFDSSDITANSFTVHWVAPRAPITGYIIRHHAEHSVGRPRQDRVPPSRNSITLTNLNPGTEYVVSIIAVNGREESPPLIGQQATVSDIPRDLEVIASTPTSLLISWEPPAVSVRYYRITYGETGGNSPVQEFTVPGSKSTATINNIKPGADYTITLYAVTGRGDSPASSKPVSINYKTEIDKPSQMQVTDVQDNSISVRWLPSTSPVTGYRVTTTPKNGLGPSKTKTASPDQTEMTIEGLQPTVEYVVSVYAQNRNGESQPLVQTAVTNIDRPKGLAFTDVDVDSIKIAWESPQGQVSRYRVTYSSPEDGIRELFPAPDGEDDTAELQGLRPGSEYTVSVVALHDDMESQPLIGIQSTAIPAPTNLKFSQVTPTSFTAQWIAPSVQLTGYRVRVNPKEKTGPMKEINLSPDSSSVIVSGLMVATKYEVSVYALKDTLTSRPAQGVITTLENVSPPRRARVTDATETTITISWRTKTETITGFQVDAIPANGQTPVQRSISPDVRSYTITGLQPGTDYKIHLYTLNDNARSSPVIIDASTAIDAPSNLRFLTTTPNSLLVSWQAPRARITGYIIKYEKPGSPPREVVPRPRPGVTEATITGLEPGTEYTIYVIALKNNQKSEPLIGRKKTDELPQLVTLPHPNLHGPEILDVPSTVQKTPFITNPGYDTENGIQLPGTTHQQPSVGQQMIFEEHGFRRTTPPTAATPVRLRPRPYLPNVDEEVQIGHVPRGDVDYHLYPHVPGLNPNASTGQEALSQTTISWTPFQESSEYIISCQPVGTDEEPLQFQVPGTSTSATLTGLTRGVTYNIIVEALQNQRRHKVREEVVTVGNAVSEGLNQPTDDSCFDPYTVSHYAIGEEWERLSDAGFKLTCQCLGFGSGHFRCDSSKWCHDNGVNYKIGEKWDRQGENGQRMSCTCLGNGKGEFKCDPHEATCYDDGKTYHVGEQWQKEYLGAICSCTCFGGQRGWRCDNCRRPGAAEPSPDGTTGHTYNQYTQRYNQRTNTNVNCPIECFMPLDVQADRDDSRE
T1 sequence (P02751 1727-1814 limits assumed): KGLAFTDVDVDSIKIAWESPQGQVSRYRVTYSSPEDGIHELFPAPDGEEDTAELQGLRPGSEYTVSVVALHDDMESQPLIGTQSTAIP

With “KSF-IL4: antibody KSF (specific to hen egg lysozyme, negative control) in diabody format fused to murine interleukin 4 [reference compound]” the “therapeutic activity (tumour weight)” value (Fibrosarcoma Wehi-164) was “do not promote any significant therapeutic activity”, the “accumulation at the tumour site (% ID/g)” value (F9 teratocarcinoma [1]) was “not observed” and the EC50 (CTLL2 cells; CTLL2 cells, 20000 cells/well) was 0.02 nM. The biological cytokine activity (CTLL2 cells; CTLL2 proliferation) was “comparable to that of recombinant murine IL4”, the “affinity for the cognate antigen” value [2] was “retained a high-affinity for the cognate antigen” and the “statistical significance, tumour volume vs PBS” value (A20 lymphoma) was “not statistically significant”. The “number of the endometriotic lesions” value [3] was “did not have a significant effect”, the “volume of the endometriotic lesions” value [3] was “did not have a significant effect” and the therapeutic performance (CT26 colon carcinoma; 90 μg i.v. every 48 h) was “not better than saline”. For the same molecule, the “statistical significance, tumour volume vs PBS” value (CT26 colon carcinoma; CT26, F8-IL4 vs KSF-IL4 study) was “not statistically significant” and the “recognition of tumour neovascular structures” value [4] was “not”.

B1: SIP (F8): antibody F8 in SIP format (scFv fused to epsilon-CH4 domain of human IgE) (protein)
chain: EVQLLESGGGLVQPGGSLRLSCAASGFTFSLFTMSWVRQAPGKGLEWVSAISGSGGSTYYADSVKGRFTISRDNSKNTLYLQMNSLRAEDTAVYYCAKSTHLYLFDYWGQGTLVTVSSGGGGSGGGGSGGGGEIVLTQSPGTLSLSPGERATLSCRASQSVSMPFLAWYQQKPGQAPRLLIYGASSRATGIPDRFSGSGSGTDFTLTISRLEPEDFAVYYCQQMRGRPPTFGQGTKVEIKSGGSGGPRAAPEVYAFATPEWPGSRDKRTLACLIQNFMPEDISVQWLHNEVQLPDARHSTTQPRKTKGSGFFVFSRLEVTRAEWEQKDEFICRAVHEAASPSQTVQRAVSVNPESSRRGGC
For B1, the “colocalization of staining with CD31+ blood vessels” value [5] was “colocalization of EDA and CD31 in the pancreas of diabetic mice”.

B2: F8-hIL4: F8 diabody fused to human IL4, glycosylated (protein)
chain: EVQLLESGGGLVQPGGSLRLSCAASGFTFSLFTMSWVRQAPGKGLEWVSAISGSGGSTYYADSVKGRFTISRDNSKNTLYLQMNSLRAEDTAVYYCAKSTHLYLFDYWGQGTLVTVSSGGSGGEIVLTQSPGTLSLSPGERATLSCRASQSVSMPFLAWYQQKPGQAPRLLIYGASSRATGIPDRFSGSGSGTDFTLTISRLEPEDFAVYYCQQMRGRPPTFGQGTKVEIKSSSSGSSSSGSSSSGHKCDITLQEIIKTLNSLTEQKTLCTELTVTDIFAASKNTTEKETFCRAATVLRQFYSHHEKDTRCLGATAQQFHRHKQLIRFLKRLDRNLWGLAGLNSCPVKEANQSTLENFLERLKTIMREKYSKCSS
modifications: Synthetic sequence Amino acid sequence of F8 - (human) IL4 of PCT/EP2014/053998
notes: F8 diabody fused to human IL4, glycosylated
For B2, the “accumulation at the tumor site (% ID/g)” value (F9 teratocarcinoma [6]) was “comparable preferential accumulation at the tumor site”.

B3: F8-hIL4-N284Q: unglycosylated F8-human IL4 mutant, asparagine 284 substituted with glutamine (protein)
chain: B2 chain with N284Q
modifications: Synthetic sequence Amino acid sequence of F8 - (human) IL4 N284Q mutant of PCT/EP2014/053998
notes: unglycosylated F8-human IL4 mutant, asparagine 284 substituted with glutamine
In the case of B3, the “accumulation at the tumor site (% ID/g)” value (F9 teratocarcinoma [6]) is reported as “comparable preferential accumulation at the tumor site”.
